Data taken from patent publication US9181239B2, “Pyridopyrimidinone inhibitors of kinases” (AbbVie Inc., priority 2011, dated 2015).

Molecular target: T1, Wee1 kinase (Homo sapiens, UniProt P30291)
T1 construct: purchased Carnabio 05-177
Assay: Wee1 time-resolved fluorescence equilibrium binding assay (probe displacement)
Conditions: GST-tagged-Wee1 kinase 2 nM, fluorescent probe 300 nM, 1 hour incubation; read-out: Wee-1 binding (Ki nM)
Procedure: Wee1 kinase was assayed using a time-resolved fluorescence equilibrium binding assay monitoring displacement of a rapidly reversible Oregon Green-labeled ATP-competitive kinase probe (N-(2-(2-(2-(4-(4-(5-chloro-4-(2-(1-hydroxycyclobutyl)thiazol-5-yl)-1H-pyrrolo[2,3-b]pyridin-2-yl)phenyl)piperazin-1-yl)ethoxy)ethoxy)ethyl)-2′,7′-difluoro-3′,6′-dihydroxy-3-oxo-3H-spiro[isobenzofuran-1,9′-xanthene]-5-carboxamide) by competitive Wee1 inhibitors.

T1 sequence (P30291 whole entry): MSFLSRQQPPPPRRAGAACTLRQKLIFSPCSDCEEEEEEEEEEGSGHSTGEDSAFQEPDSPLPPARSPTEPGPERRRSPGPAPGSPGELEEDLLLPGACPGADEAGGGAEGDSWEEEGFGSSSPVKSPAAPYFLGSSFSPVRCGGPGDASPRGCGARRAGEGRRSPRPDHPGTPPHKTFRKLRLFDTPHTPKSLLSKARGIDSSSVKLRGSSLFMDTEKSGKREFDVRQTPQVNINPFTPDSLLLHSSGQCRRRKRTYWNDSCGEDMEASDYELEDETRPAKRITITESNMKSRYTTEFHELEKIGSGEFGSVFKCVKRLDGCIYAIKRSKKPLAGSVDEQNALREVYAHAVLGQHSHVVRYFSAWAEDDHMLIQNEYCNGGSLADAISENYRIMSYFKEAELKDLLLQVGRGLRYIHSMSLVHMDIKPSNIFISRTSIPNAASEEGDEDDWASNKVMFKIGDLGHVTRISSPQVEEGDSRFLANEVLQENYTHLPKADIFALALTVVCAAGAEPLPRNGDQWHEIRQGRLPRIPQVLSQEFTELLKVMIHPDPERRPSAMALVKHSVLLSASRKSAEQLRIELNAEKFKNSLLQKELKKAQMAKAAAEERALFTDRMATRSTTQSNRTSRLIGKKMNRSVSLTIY

| Ki | SMILES |
| --- | --- |
| 0.8 nM | O=c1c(-c2c(Cl)cccc2Cl)cn(C2CC2)c2nc(Nc3ccc4c(c3)CNCC43CC3)ncc12 [Example 24, 8-cyclopropyl-6-(2,6-dichlorophenyl)-2-(2′,3′-dihydro-1′H-spiro[cyclopropane-1,4′-isoquinolin]-7′-ylamino)pyrido[2,3-d]pyrimidin-5(8H)-one] |
| 1.2 nM | CN(C)C1Cc2ccc(Nc3ncc4c(=O)c(-c5c(Cl)cccc5Cl)cn(C5CC5)c4n3)cc2C1 (stereo not shown) [Example 25, 8-cyclopropyl-6-(2,6-dichlorophenyl)-2-{[2-(dimethylamino)-2,3-dihydro-1H-inden-5-yl]amino}pyrido[2,3-d]pyrimidin-5(8H)-one] |
| 1.2 nM | CC(C)n1cc(-c2c(Cl)cccc2Cl)c(=O)c2cnc(Nc3ccc(N4CCN(C)CC4)cc3)nc21 [Example 26, 6-(2,6-dichlorophenyl)-2-{[4-(4-methylpiperazin-1-yl)phenyl]amino}-8-(propan-2-yl)pyrido[2,3-d]pyrimidin-5(8H)-one] |
| 1.3 nM | CN1CCN(c2ccc(Nc3ncc4c(=O)c(-c5c(Cl)cccc5Cl)cn(C5COC5)c4n3)cc2)CC1 [Example 27, 6-(2,6-dichlorophenyl)-2-{[4-(4-methylpiperazin-1-yl)phenyl]amino}-8-(oxetan-3-yl)pyrido[2,3-d]pyrimidin-5(8H)-one] |
| 19 nM | CN1CCN(c2ccc(Nc3ncc4c(=O)c(-c5c(Cl)cccc5Cl)cn(C(C)(C)C)c4n3)cc2)CC1 [Example 28, 8-tert-butyl-6-(2,6-dichlorophenyl)-2-{[4-(4-methylpiperazin-1-yl)phenyl]amino}pyrido[2,3-d]pyrimidin-5(8H)-one] |
| 6.4 nM | COc1ccc(Cn2cc(-c3c(Cl)cccc3Cl)c(=O)c3cnc(Nc4ccc5c(c4)CN(C)CC54CC4)nc32)cc1 [Example 29, 6-(2,6-dichlorophenyl)-8-(4-methoxybenzyl)-2-[(2′-methyl-2′,3′-dihydro-1′H-spiro[cyclopropane-1,4′-isoquinolin]-7′-yl)amino]pyrido[2,3-d]pyrimidin-5(8H)-one] |
| 0.2 nM | CN1Cc2cc(Nc3ncc4c(=O)c(-c5c(Cl)cccc5Cl)c[nH]c4n3)ccc2C2(CC2)C1 [Example 30, 6-(2,6-dichlorophenyl)-2-[(2′-methyl-2′,3′-dihydro-1′H-spiro[cyclopropane-1,4′-isoquinolin]-7′-yl)amino]pyrido[2,3-d]pyrimidin-5(8H)-one] |
| 0.6 nM | CCn1cc(-c2c(Cl)cccc2Cl)c(=O)c2cnc(Nc3ccc(N4CCN(C)CC4)cc3)nc21 [Example 31, 6-(2,6-dichlorophenyl)-8-ethyl-2-{[4-(4-methylpiperazin-1-yl)phenyl]amino}pyrido[2,3-d]pyrimidin-5(8H)-one] |
| 0.3 nM | CCn1cc(-c2c(Cl)cccc2Cl)c(=O)c2cnc(Nc3ccc4c(c3)CN(C)CC43CC3)nc21 [Example 32, 6-(2,6-dichlorophenyl)-8-ethyl-2-[(2′-methyl-2′,3′-dihydro-1′H-spiro[cyclopropane-1,4′-isoquinolin]-7′-yl)amino]pyrido[2,3-d]pyrimidin-5(8H)-one] |
| 1.5 nM | CN1CCN(c2ccc(Nc3ncc4c(=O)c(-c5c(F)cccc5Cl)cn(C)c4n3)cc2)CC1 [Example 33, 6-(2-chloro-6-fluorophenyl)-8-methyl-2-{[4-(4-methylpiperazin-1-yl)phenyl]amino}pyrido[2,3-d]pyrimidin-5(8H)-one] |
| 0.4 nM | CN1Cc2cc(Nc3ncc4c(=O)c(-c5c(F)cccc5Cl)cn(C)c4n3)ccc2C2(CC2)C1 [Example 34, 6-(2-chloro-6-fluorophenyl)-8-methyl-2-[(2′-methyl-2′,3′-dihydro-1′H-spiro[cyclopropane-1,4′-isoquinolin]-7′-yl)amino]pyrido[2,3-d]pyrimidin-5(8H)-one] |
| 66 nM | COc1ccc(Cn2cc(-c3c(F)cccc3Cl)c(=O)c3cnc(Nc4ccc(N5CCN(C)CC5)cc4)nc32)cc1 [Example 35, 6-(2-chloro-6-fluorophenyl)-8-(4-methoxybenzyl)-2-{[4-(4-methylpiperazin-1-yl)phenyl]amino}pyrido[2,3-d]pyrimidin-5(8H)-one] |
| 33 nM | COc1ccc(Cn2cc(-c3c(F)cccc3Cl)c(=O)c3cnc(Nc4ccc5c(c4)CN(C)CC54CC4)nc32)cc1 [Example 36, 6-(2-chloro-6-fluorophenyl)-8-(4-methoxybenzyl)-2-[(2′-methyl-2′,3′-dihydro-1′H-spiro[cyclopropane-1,4′-isoquinolin]-7′-yl)amino]pyrido[2,3-d]pyrimidin-5(8H)-one] |
| 2.4 nM | CN1CCN(c2ccc(Nc3ncc4c(=O)c(-c5c(F)cccc5Cl)cn(C5CC5)c4n3)cc2)CC1 [Example 37, 6-(2-chloro-6-fluorophenyl)-8-cyclopropyl-2-{[4-(4-methylpiperazin-1-yl)phenyl]amino}pyrido[2,3-d]pyrimidin-5(8H)-one] |
| 1.3 nM | CN1Cc2cc(Nc3ncc4c(=O)c(-c5c(F)cccc5Cl)cn(C5CC5)c4n3)ccc2C2(CC2)C1 [Example 38, 6-(2-chloro-6-fluorophenyl)-8-cyclopropyl-2-[(2′-methyl-2′,3′-dihydro-1′H-spiro[cyclopropane-1,4′-isoquinolin]-7′-yl)amino]pyrido[2,3-d]pyrimidin-5(8H)-one] |
| 0.7 nM | CN1Cc2cc(Nc3ncc4c(=O)c(-c5c(F)cccc5Cl)c[nH]c4n3)ccc2C2(CC2)C1 [Example 39, 6-(2-chloro-6-fluorophenyl)-2-[(2′-methyl-2′,3′-dihydro-1′H-spiro[cyclopropane-1,4′-isoquinolin]-7′-yl)amino]pyrido[2,3-d]pyrimidin-5(8H)-one] |

| Ki | SMILES |
| --- | --- |
| 2.4 nM | CN1CCN(c2ccc(Nc3ncc4c(=O)c(-c5c(F)cccc5Cl)c[nH]c4n3)cc2)CC1 [Example 40, 6-(2-chloro-6-fluorophenyl)-2-{[4-(4-methylpiperazin-1-yl)phenyl]amino}pyrido[2,3-d]pyrimidin-5(8H)-one] |
| 0.4 nM | CN(C)C1Cc2ccc(Nc3ncc4c(=O)c(-c5c(Cl)cccc5Cl)c[nH]c4n3)cc2C1 (stereo not shown) [Example 41, 6-(2,6-dichlorophenyl)-2-{[2-(dimethylamino)-2,3-dihydro-1H-inden-5-yl]amino}pyrido[2,3-d]pyrimidin-5(8H)-one] |
| 0.2 nM | CN1Cc2cc(Nc3ncc4c(=O)c(-c5c(Cl)cccc5Cl)c[nH]c4n3)ccc2C(C)(C)C1 [Example 42, 6-(2,6-dichlorophenyl)-2-[(2,4,4-trimethyl-1,2,3,4-tetrahydroisoquinolin-7-yl)amino]pyrido[2,3-d]pyrimidin-5(8H)-one] |
| 0.3 nM | O=c1c(-c2c(Cl)cccc2Cl)c[nH]c2nc(Nc3ccc4c(c3)CNCC43CC3)ncc12 [Example 43, 6-(2,6-dichlorophenyl)-2-(2′,3′-dihydro-1′H-spiro[cyclopropane-1,4′-isoquinolin]-7′-ylamino)pyrido[2,3-d]pyrimidin-5(8H)-one] |
| 0.5 nM | CN(C)C1CCN(c2ccc(Nc3ncc4c(=O)c(-c5c(Cl)cccc5Cl)cn(C)c4n3)cc2)CC1 [Example 44, 6-(2,6-dichlorophenyl)-2-({4-[4-(dimethylamino)piperidin-1-yl]phenyl}amino)-8-methylpyrido[2,3-d]pyrimidin-5(8H)-one] |
| 180 nM | Cn1cc(-c2c(Cl)cccc2Cl)c(=O)c2cnc(N)nc21 [Example 45, 2-amino-6-(2,6-dichlorophenyl)-8-methylpyrido[2,3-d]pyrimidin-5(8H)-one] |
| 1.1 nM | Cn1cc(-c2c(Cl)cccc2Cl)c(=O)c2cnc(Nc3ccc4c(c3)CCNC4)nc21 [Example 46, 6-(2,6-dichlorophenyl)-8-methyl-2-(1,2,3,4-tetrahydroisoquinolin-6-ylamino)pyrido[2,3-d]pyrimidin-5(8H)-one] |
| 0.6 nM | Cn1cc(-c2c(Cl)cccc2Cl)c(=O)c2cnc(Nc3ccc4c(c3)CNCC4(C)C)nc21 [Example 47, 6-(2,6-dichlorophenyl)-2-[(4,4-dimethyl-1,2,3,4-tetrahydroisoquinolin-7-yl)amino]-8-methylpyrido[2,3-d]pyrimidin-5(8H)-one] |
| 1.7 nM | Cn1cc(-c2c(Cl)cccc2Cl)c(=O)c2cnc(Nc3ccc(N4CCOCC4)cc3)nc21 [Example 48, 6-(2,6-dichlorophenyl)-8-methyl-2-{[4-(morpholin-4-yl)phenyl]amino}pyrido[2,3-d]pyrimidin-5(8H)-one] |
| 0.8 nM | Cn1cc(-c2c(Cl)cccc2Cl)c(=O)c2cnc(Nc3ccc4c(c3)CNC4)nc21 [Example 49, 6-(2,6-dichlorophenyl)-2-(2,3-dihydro-1H-isoindol-5-ylamino)-8-methylpyrido[2,3-d]pyrimidin-5(8H)-one] |
| 0.9 nM | CN1CCC(c2ccc(Nc3ncc4c(=O)c(-c5c(Cl)cccc5Cl)cn(C)c4n3)cc2)CC1 [Example 50, 6-(2,6-dichlorophenyl)-8-methyl-2-{[4-(1-methylpiperidin-4-yl)phenyl]amino}pyrido[2,3-d]pyrimidin-5(8H)-one] |
| 0.4 nM | Cn1cc(-c2c(Cl)cccc2Cl)c(=O)c2cnc(Nc3ccc4c(c3)CNCC4)nc21 [Example 51, 6-(2,6-dichlorophenyl)-8-methyl-2-(1,2,3,4-tetrahydroisoquinolin-7-ylamino)pyrido[2,3-d]pyrimidin-5(8H)-one] |
| 0.5 nM | CN1CCc2ccc(Nc3ncc4c(=O)c(-c5c(Cl)cccc5Cl)cn(C)c4n3)cc2C1 [Example 52, 6-(2,6-dichlorophenyl)-8-methyl-2-[(2-methyl-1,2,3,4-tetrahydroisoquinolin-7-yl)amino]pyrido[2,3-d]pyrimidin-5(8H)-one] |
| 0.3 nM | CN1CCc2cc(Nc3ncc4c(=O)c(-c5c(Cl)cccc5Cl)cn(C)c4n3)ccc2C1 [Example 54, 6-(2,6-dichlorophenyl)-8-methyl-2-[(2-methyl-1,2,3,4-tetrahydroisoquinolin-6-yl)amino]pyrido[2,3-d]pyrimidin-5(8H)-one] |
| 0.4 nM | Cn1cc(-c2c(Cl)cccc2Cl)c(=O)c2cnc(Nc3ccc4c(c3)CC(N3CCCC3)C4)nc21 (stereo not shown) [Example 55, 6-(2,6-dichlorophenyl)-8-methyl-2-{[2-(pyrrolidin-1-yl)-2,3-dihydro-1H-inden-5-yl]amino}pyrido[2,3-d]pyrimidin-5(8H)-one] |
